# Source: patent US20130331389A1, “Methods and Compositions for Cardiomyocyte Replenishment by Endogenous and Progenitor Stem Cells” (NATIONAL CHENG KUNG UNIVERSITY, priority 2012, published 2013)
# Columns and labels:
# TGF-β1 = assay: Quantitative RT-PCR of TGF-β1 in infarcted region of MI heart; format: in vivo, mouse; conditions: day 3 and day 7 after injury
# Method: (§1) To induce Cre recombination to achieve GFP labeling of cardiomyocytes, tamoxifen (Sigma) was dissolved in sunflower oil (Sigma) at a concentration of 5 mg/ml. The tamoxifen solution was injected intraperitoneally into M/Z mice daily at a dosage of 40 μg per 1 g body weight for 14 days, and the same dosage was injected twice daily for short-term labeling using methods known in the art (Laugwitz, K.-L. et al. Nature 433, 647-653 (2005)). All experimental conditions were optimized prior to the PGE2, indomethacin and TGF-β Type I Receptor Kinase Inhibitor II (ALK5 Inhibitor II, ALK5i, Merck) treatments. The mice treated with PGE2 or PGI2 (Vegiopoulos, A. et al. Science 328, 1158-1161 (2010)) (both from Sigma) were injected intraperitoneally with 3.33 ng of drug per 1 g of body weight dissolved in absolute ethanol twice daily. […]
# (§2) The total RNA isolated from the ischemic region or remote area of MI hearts was reverse transcribed using the SuperScript III (Invitrogen) system according to the manufacturer's protocol. For quantitative PCR, the SYBR Green reagent (Maestrogen) was used according to the manufacturer's protocol. The analysis of relative gene expression was performed using the 2̂[−delta delta Ct] method and sequence-specific primers designed for semi-quantitative PCR and real-time RT-PCR (FIG. 11).
# [1] = system: cardiomyocyte-depleted small cells; assay: Culture of cardiomyocyte-depleted small cells, cTnT immunocytochemistry; format: cell-based, mouse; conditions: PGE2 10 μm for three days
# Method: Cardiomyocyte-depleted cardiac small cells were prepared as previously described with some modifications (Oh, H. et al. Proc. Natl. Acad. Sci. USA 100, 12313-12318 (2003); and Pfister, O. et al. Circ. Res. 97, 52-61 (2005)). Specifically, instead of using a 70 μm and then a 45 μm strainer to isolate the cardiomyocyte-depleted cardiac small cells, the cells were filtered through a 45 μm strainer directly after enzyme digestion. The minced heart tissue was digested with 0.1% collagenase B (Roche Molecular Biochemicals), 2.4 U/ml dispase II (Roche Molecular Biochemicals) and 2.5 mmol/L CaCl2 at 37° C. for 30 minutes and then filtered through a 45-μm filter. For isolation of cardiac Sca-1^+ cells, the cardiac small cells were incubated with the Phycoerythrin (PE)-conjugated Sca-1^+ antibodies (BD Bioscience) at 4° C. for 30 minutes. The PE-labeled Sca-1^+ cells were then sorted by the magnetic particles against PE (BD Biosciences). Incubation of cardiomyocyte-depleted small cells with anti-Sca-1-PE antibody and magnetic cell sorting were omitted for isolation of Sca-1^+ cells from the Sca-1-GFP transgenic mice. After isolation, the cells were fixed in 2% paraformaldehyde for 20 minutes and followed by 1 hour blocking in PBS with 1% BSA. […]
# Sca-1 = assay: Quantitative RT-PCR of Sca-1 in infarct zone of MI heart; format: in vivo, mouse; conditions: day 3 post-MI
# Method: To induce Cre recombination to achieve GFP labeling of cardiomyocytes, tamoxifen (Sigma) was dissolved in sunflower oil (Sigma) at a concentration of 5 mg/ml. The tamoxifen solution was injected intraperitoneally into M/Z mice daily at a dosage of 40 μg per 1 g body weight for 14 days, and the same dosage was injected twice daily for short-term labeling using methods known in the art (Laugwitz, K.-L. et al. Nature 433, 647-653 (2005)). All experimental conditions were optimized prior to the PGE2, indomethacin and TGF-β Type I Receptor Kinase Inhibitor II (ALK5 Inhibitor II, ALK5i, Merck) treatments. The mice treated with PGE2 or PGI2 (Vegiopoulos, A. et al. Science 328, 1158-1161 (2010)) (both from Sigma) were injected intraperitoneally with 3.33 ng of drug per 1 g of body weight dissolved in absolute ethanol twice daily. For the indomethacin treatment, mice were fed with water containing indomethacin (Sigma, 15 μg/ml) for different periods of time. The indomethacin-containing water was changed every 3 days. The mice subjected to the celecoxib (Lyons, T. R. et al. Nat. Med. 17, 1109-1115 (2011)) (Sigma) treatment were injected intraperitoneally with 5 μg of drug per 1 g of body weight daily. For ALK5i treatment, aged mice were injected intraperitoneally once per day with 1 μg of drug per 1 g of body weight one day before surgery and continuously until day 10 post-MI. Celecoxib and ALK5i were dissolved in ethanol and DMSO, respectively.
# as §2
# interleukin-10 (IL-10) = assay: Quantitative RT-PCR of IL-10 at injured region; format: in vivo, mouse; conditions: both young and old mice; day 3 after infarction
# Method: as §1, §2
# CD11b = assay: Quantitative RT-PCR of myeloid cell marker CD11b in infarct region; format: in vivo, mouse; conditions: both young and old mice; day 3 post-infarction
# Method: as §1, §2
# EP2 = assay: Quantitative RT-PCR of PGE2 receptors at infarct region of MI heart; format: in vivo, mouse
# Method: as §1, §2
# B220 = assay: Quantitative RT-PCR of B cell marker B220 in infarct region; format: in vivo, mouse; conditions: both young and old mice; day 3 post-infarction
# Method: as §1, §2
structure (smiles),measurement,setting,value
"CCCCC[C@H](O)/C=C/C1C(O)CC(=O)C1C/C=C\CCCC(=O)O (stereo partly drawn) [PGE2, (5Z,11α,13E,15S)-7-[3-hydroxy-2-(3-hydroxyoct-1-enyl)-5-oxo-cyclopentyl]hept-5-enoic acid]",expression of TGF-β1,TGF-β1; aged mice,decline
same,expression of TGF-β1,TGF-β1; young mice,not significantly altered
same,"mature sarcomeric structure, as determined by the expression of cTnT",[1],seen
same,Sca-1 expression,Sca-1; aged animals,restored Sca-1 expression to levels similar to those in young mice
same,Sca-1 expression,Sca-1; young mice,further increased
same,expression of interleukin-10 (IL-10),interleukin-10 (IL-10),enhanced
same,CD11b level,CD11b,induced
same,expression of PGE2 receptor EP2 in hearts after MI,EP2,significantly induced
same,B220 level,B220,reduced
